The values that follow come from article PMC12717099, “Peptidoglycan recruitment by a penicillin binding protein” (Nature Communications, 2025).

In experiment [1] the test system is E. faecium D344SRF pCWR624Δpbp5_pbp5_V6. The experiment can be described thus: Disk diffusion assay, pbp5_V6. It is filed as cell-based, Enterococcus faecium. Conditions: strain pbp5_V6 (E284A_E291A_S294A_N295A); 37 °C, 24 h; n=3. The procedure:
(§1) The synthetic genes were purchased from GeneWiz (South Plainfield, NJ). The ribosome binding site sequence AGGAGG (Shine-Dalgarno), and a string of five A’s followed by the sequence […], that corresponds to the first 15 bp found in pbp5 from E. faecium C68 were added upstream of the START codon. The terminator sequence […] was added downstream of the STOP codon. BamHI restriction sites were added to the flanking 5′ and 3′ ends. The synthetic genes were inserted into the vector pCWR624Δpbp5. This vector was derived from pCWR624[10], in which the pbp5 gene from D366 was excised by digestion with BamHI followed by re-ligation of the vector, allowing subsequent insertion of modified synthetic pbp5s into the BamHI site downstream of ftsWEfm and psr from E. faecium C68[10]. The synthetic genes were inserted in a BamHI site located downstream of psr. The proper orientation was confirmed by PCR amplification using the forward primer OR_pbp5_FOR_1 (5′-[…]-3′) and the reverse primer OR_pbp5_REV_1 (5′-[…]-3′). Plasmids were sequence verified for the specific binding site mutations. The resulting constructions were electroporated into the natural pbp5(-) mutant E. faecium D344SRF with a selection on brain heart infusion agar (BHI) plates containing kanamycin (1500 µg/ml).
(§2) E. faecium strains were streaked fresh from −80 °C stored glycerol stocks onto brain heart infusion (BHI) agar plates and incubated for 18 h at 37 °C. Strains harboring the plasmid derivatives were grown under antibiotic pressure on agar plates containing kanamycin at 1500 µg/ml. A single colony was inoculated into BHI or BHI-kanamycin (1500 µg/ml) for overnight cultures (18 h).
Antibiotic disks used were manufactured by BD BBL^TM. Disk diffusion assays were performed according to the Clinical and Laboratory Standards Institute (CLSI) guidance. Overnight cultures were inoculated into 3 ml of BHI or BHI-kanamycin (1500 µg/ml) broth with a dilution of 1:100 and incubated until an OD600 of ~0.5 was reached. […] The plates were incubated at 37 °C and the zones of inhibition were measured after 24 h. […]

Experiment [2] has the same test system. The experiment can be described thus: MIC by broth microdilution, pbp5_V6. The conditions noted are these: strain pbp5_V6 (E284A_E291A_S294A_N295A); 37 °C, 20 h; n=3. Type of experiment: cell-based, Enterococcus faecium. Here is the method:
as §1, §2
(§3) MIC determination was performed using a standard broth microdilution technique in duplicate from independent cultures. Overnight cultures were inoculated into 3 ml of BHI or BHI-kanamycin (1500 µg/ml) broth in a dilution of 1:100 and incubated until an OD600 of ~0.5 was reached. Cultures were diluted 1:1000 and inoculated into the 96-well plates with the corresponding antibiotics to be tested. Plates were incubated at 37 °C for 20 h and read by eye. […]
(Broth dilution looks for growth in wells or tubes with falling amounts of substance.)

The test system of experiment [3] is E. faecium D344SRF pCWR624 (PBP5 plasmid). The experiment in a line: MIC by broth microdilution, pCWR624. Conditions: strain pCWR624; 37 °C, 20 h; n=3. Type of experiment: cell-based, Enterococcus faecium. Here is the method:
as §1, §2, §3

The test system of experiment [4] is E. faecium D344SRF pCWR624Δpbp5_pbp5_V2. The experiment can be described thus: MIC by broth microdilution, pbp5_V2. Conditions: strain pbp5_V2 (N523A_Q627A); 37 °C, 20 h; n=3. Type of experiment: cell-based, Enterococcus faecium. Here is the method:
as §2

In experiment [5] the test system is E. faecium D344SRF, Wild Type. It is filed as cell-based, Enterococcus faecium. Conditions: strain Wild Type; disks Ampicillin 10 μg, Penicillin 10 U, Ceftriaxone 30 μg; BHI agar, 37 °C, 24 h; n=3. The procedure: as §2
Antibiotic disks used were manufactured by BD BBL^TM. Disk diffusion assays were performed according to the Clinical and Laboratory Standards Institute (CLSI) guidance. Overnight cultures were inoculated into 3 ml of BHI or BHI-kanamycin (1500 µg/ml) broth with a dilution of 1:100 and incubated until an OD600 of ~0.5 was reached. The OD600 was adjusted to 0.01 to get the inoculum suspension. […] The plates were incubated at 37 °C and the zones of inhibition were measured after 24 h. All experiments were conducted in triplicate.

The next experiment concerns PBP2B. The experiment can be described thus: 1D 1H STD NMR of SP2 with PBP2B. It is filed as binding, E. faecalis. Conditions: for STD amplification factor, 2000: protein:peptide 1:100, 2 s saturation. The source says: Total saturation time for STD measurements was 2 s.
Overlapped peaks were completely excluded from the analysis.

Where only a bound is given, the exact number is not on record here.

Take `CO/N=C(\C(=O)N[C@@H]1C(=O)N2C(C(=O)O)=C(CSc3nc(=O)c(=O)[nH]n3C)CS[C@H]12)c1csc(N)n1` [Ceftriaxone, ceftriaxone]: the “Zone Size (mm) [Range]” value in experiment [1] is 0 [0] mm; in experiment [5], 20 [20-26] mm. In addition, the results for the “MIC (µg/ml) [Range]” value in experiment [2], in experiment [3] and in experiment [4] were > 3200 [>3200] µg/ml, > 3200 [3200->3200] µg/ml and 50 [50-100] µg/ml, respectively.
For the compound D-Lac-L-Ala-D-iGln-L-Lys(D-iAsn) [SP2], the “STD % to SP1” value is on record as 24.9553% in the experiment with PBP2B (1H DLacβ); 52.517% in the experiment with PBP2B (1H DQ2β (first listed)); 59.0483% in the experiment with PBP2B (1H DQ2β (second listed)); 22.6012% with PBP2B (1H DQ2γ); 41.2007% in the experiment on PBP2B (1H K3α); 85.7339% in the experiment on PBP2B (1H K3β). For the same compound, the “STD % to SP1” value is listed as 40.677% in the experiment with PBP2B (1H K3γ); 54.3796% in the experiment on PBP2B (1H K3δ); 13.0751% with PBP2B (1H K3ε); 44.8726% in the experiment with PBP2B (1H LA1α); 28.2398% with PBP2B (1H LA1β); 20.0674% in the experiment with PBP2B (1H iNα,DQ2α). Moreover, the “STD % to SP1” value in the experiment on PBP2B (1H iNβ) was found to be 22.5751%. For the same compound, the “STD amplification factor as fraction of highest SP1:PBP5 value” (from here on “STD amplification factor as fraction”) is given as 0.2496 with PBP2B (1H DLacβ); 0.5252 with PBP2B (1H DQ2β (first listed)); 0.5905 in the experiment on PBP2B (1H DQ2β (second listed)); 0.226 with PBP2B (1H DQ2γ); 0.412 in the experiment on PBP2B (1H K3α); 0.8573 in the experiment on PBP2B (1H K3β). The “STD amplification factor as fraction” value in the experiment on PBP2B (1H K3γ) turned out to be 0.4068; in the experiment with PBP2B (1H K3δ) it was 0.5438; in the experiment with PBP2B (1H K3ε) it was 0.1308; with PBP2B (1H LA1α), 0.4487; in the experiment on PBP2B (1H LA1β), 0.2824; with PBP2B (1H iNα,DQ2α), 0.2007. For the same compound, the “STD amplification factor as fraction” value in the experiment on PBP2B (1H iNβ) was 0.2258. In addition, the “STD amplification factor, 2000” value was 6.715 with PBP2B (1H DLacβ); 14.1315 in the experiment with PBP2B (1H DQ2β (first listed)); 15.8889 in the experiment on PBP2B (1H DQ2β (second listed)); 6.082 in the experiment on PBP2B (1H DQ2γ); 11.0865 in the experiment on PBP2B (1H K3α); 23.0696 with PBP2B (1H K3β). For the same compound, the “STD amplification factor, 2000” value is reported as 10.9455 with PBP2B (1H K3γ); 14.6327 in the experiment with PBP2B (1H K3δ); 3.518 with PBP2B (1H K3ε); 12.0745 with PBP2B (1H LA1α); 7.599 in the experiment on PBP2B (1H LA1β); 5.4 in the experiment on PBP2B (1H iNα,DQ2α). Moreover, the “STD amplification factor, 2000” value in the experiment on PBP2B (1H iNβ) was 6.075.
